These results are taken from ChEMBL document CHEMBL1123539, “[p-[(Thienylcarbonyl)amino]phenoxy]propanolamines derivatives as diuretic and beta-adrenergic receptor blocking agents” (1986).

The subject of test [1] is Rattus norvegicus. In words: Compound was tested for oral salidiuretic activity (control/drug treatment value) in rats expressed in Na+, mequiv/6 hr at a dose of 27 mg/kg; 0.261/0.742. It counts as functional, Urine.
For test [2], the system named is Rattus norvegicus. Description: Compound was tested for oral salidiuretic activity (control/drug treatment value) in rats expressed as urinary output. at a dose of 55 mg/kg; 7.17/9.58. The class given is functional, Urine.
Test [3] has as its system Rattus norvegicus. Description: Compound was tested for oral salidiuretic activity (control/drug treatment value) in rats expressed in Na+, mequiv/6 hr at a dose of 14 mg/kg; 0.261/0.695. It counts as functional, Urine.
Test [4] deals with Rattus norvegicus. Description: Compound was tested for oral salidiuretic activity (control/drug treatment value) in rats expressed in Na+, mequiv/6 hr at a dose of 110 mg/kg; 0.261/0.735. It counts as functional, Urine.
Test [5] concerns Rattus norvegicus. In words: Compound was tested for oral salidiuretic activity (control/drug treatment value) in rats expressed as urinary output. at a dose of 110 mg/kg; 7.17/11.20. The class given is functional, Urine.
Test [6] concerns Rattus norvegicus. Description: Compound was tested for oral salidiuretic activity (control/drug treatment value) in rats expressed in Na+, mequiv/6 hr at a dose of 110 mg/kg; 0.261/0.735.
Test [7] relates to Rattus norvegicus. Description: Compound was tested for oral salidiuretic activity (control/drug treatment value) in rats expressed as urinary output. at a dose of 27 mg/kg; 7.17/9.75. The class given is functional, Urine.
In test [8] the test system is Rattus norvegicus. In words: Compound was tested for oral salidiuretic activity (control/drug treatment value) in rats expressed as urinary output. at a dose of 14 mg/kg; 7.17/9.08. The class given is functional, Urine.
Test [9] relates to Rattus norvegicus. Description: Compound was tested for oral salidiuretic activity (control/drug treatment value) in rats expressed as urinary output. at a dose of 128 mg/kg; 7.87/8.70. It counts as functional, Urine.
Test [10] deals with Rattus norvegicus. In words: Compound was tested for oral salidiuretic activity (control/drug treatment value) in rats expressed in Na+, mequiv/6 h at a dose of 128 mg/kg; 0.177/0.304. It counts as functional, Urine.
For test [11], the target named is Beta-2 adrenergic receptor (Canis lupus familiaris) (UniProt P54833).
Chain of Beta-2 adrenergic receptor (Canis lupus familiaris) (P54833 whole entry, looked up): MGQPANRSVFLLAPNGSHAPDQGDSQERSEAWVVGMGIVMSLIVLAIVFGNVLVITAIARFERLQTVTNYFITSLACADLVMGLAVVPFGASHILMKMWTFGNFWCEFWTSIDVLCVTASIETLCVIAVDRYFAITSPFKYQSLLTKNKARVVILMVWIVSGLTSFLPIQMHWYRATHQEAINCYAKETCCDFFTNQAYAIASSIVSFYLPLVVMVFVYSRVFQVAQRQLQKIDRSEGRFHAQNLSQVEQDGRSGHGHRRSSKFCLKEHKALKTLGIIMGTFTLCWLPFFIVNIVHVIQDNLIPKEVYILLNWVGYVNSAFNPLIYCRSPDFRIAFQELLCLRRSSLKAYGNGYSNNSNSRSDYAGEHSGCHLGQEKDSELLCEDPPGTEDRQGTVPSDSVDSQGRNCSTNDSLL
Description: The compound was tested for beta-2 adrenergic receptor blocking activity in dogs
Test [12] addresses Beta-1 adrenergic receptor (Homo sapiens) (UniProt P08588). To be noted: Canis lupus familiaris.
Description: Compound was tested for beta-1 adrenergic receptor blocking activity in dogs
For test [13], the system named is Rattus norvegicus. In words: Compound was tested for oral salidiuretic activity (control/drug treatment value) in rats expressed as urinary output. at a dose of 128 mg/kg; 4.88/5.32. It counts as functional, Urine.
For test [14], the system named is Rattus norvegicus. In words: Compound was tested for oral salidiuretic activity (control/drug treatment value) in rats expressed in Na+, mequiv/6 hr at a dose of 128 mg/kg; 0.229/0.172. It counts as functional, Urine.
The test system of test [15] is Rattus norvegicus. Description: Compound was tested for oral salidiuretic activity (control/drug treatment value) in rats expressed in Na+, mequiv/6 hr at a dose of 128 mg/kg; 0.112/0.407. The class given is functional, Urine.
Test [16] concerns Rattus norvegicus. Description: Compound was tested for oral salidiuretic activity (control/drug treatment value) in rats expressed as urinary output. at a dose of 128 mg/kg; 7.25/9.43. It counts as functional, Urine.
Test [17] deals with Rattus norvegicus. Description: Compound was tested for oral salidiuretic activity (control/drug treatment value) in rats expressed as urinary output. at a dose of 128 mg/kg; 9.05/12.83. It counts as functional, Urine.
For test [18], the system named is Rattus norvegicus. Description: Compound was tested for oral salidiuretic activity (control/drug treatment value) in rats expressed in Na+, mequiv/6 hr at a dose of 32 mg/kg; 0.216/0.207. The class given is functional, Urine.
For test [19], the system named is Rattus norvegicus. Description: Compound was tested for oral salidiuretic activity (control/drug treatment value) in rats expressed in Na+, mequiv/6 hr at a dose of 128 mg/kg; 0.216/0.263. The class given is functional, Urine.
Test [20] deals with Rattus norvegicus. In words: Compound was tested for oral salidiuretic activity (control/drug treatment value) in rats expressed in Na+, mequiv/6 hr at a dose of 16 mg/kg; 0.216/0.178. The class given is functional, Urine.
For test [21], the system named is Rattus norvegicus. Description: Compound was tested for oral salidiuretic activity (control/drug treatment value) in rats expressed as urinary output. at a dose of 16 mg/kg; 9.05/9.87. The class given is functional, Urine.
Test [22] deals with Rattus norvegicus. In words: Compound was tested for oral salidiuretic activity (control/drug treatment value) in rats expressed in Na+, mequiv/6 hr at a dose of 64 mg/kg; 0.216/0.097. It counts as functional, Urine.
Test [23] deals with Rattus norvegicus. Description: Compound was tested for oral salidiuretic activity (control/drug treatment value) in rats expressed in Na+, mequiv/6 hr at a dose of 128 mg/kg; 0.202/0.961. It counts as functional, Urine.
The test system of test [24] is Rattus norvegicus. Description: Compound was tested for oral salidiuretic activity (control/drug treatment value) in rats expressed as urinary output. at a dose of 128 mg/kg; 7.17/11.25. It counts as functional, Urine.
In test [25] the test system is Rattus norvegicus. In words: Compound was tested for oral salidiuretic activity (control/drug treatment value) in rats expressed as urinary output. at a dose of 128 mg/kg; 6.83/10.83. The class given is functional, Urine.
In test [26] the test system is Rattus norvegicus. In words: Compound was tested for oral salidiuretic activity (control/drug treatment value) in rats expressed in Na+, mequiv/6 hr at a dose of 128 mg/kg; 0.306/0.786. It counts as functional, Urine.
For test [27], the system named is Rattus norvegicus. In words: Compound was tested for oral salidiuretic activity (control/drug treatment value) in rats expressed as urinary output. at a dose of 32 mg/kg; 10.33/10.75. The class given is functional, Urine.
For test [28], the system named is Rattus norvegicus. In words: Compound was tested for oral salidiuretic activity (control/drug treatment value) in rats expressed in Na+, mequiv/6 hr at a dose of 32 mg/kg; 0.140/0.416. The class given is functional, Urine.
Test [29] has as its system Rattus norvegicus. Description: Compound was tested for oral salidiuretic activity (control/drug treatment value) in rats expressed in Na+, mequiv/6 hr at a dose of 128 mg/kg; 0.114/0.707.
Test [30] concerns Rattus norvegicus. Description: Compound was tested for oral salidiuretic activity (control/drug treatment value) in rats expressed as urinary output. at a dose of 128 mg/kg; 7.70/12.75. It counts as functional, Urine.
The test system of test [31] is Rattus norvegicus. Description: Compound was tested for oral salidiuretic activity (control/drug treatment value) in rats expressed in Na+, mequiv/6 hr at a dose of 32 mg/kg; 0.181/0.230. The class given is functional, Urine.
For test [32], the system named is Rattus norvegicus. Description: Compound was tested for oral salidiuretic activity (control/drug treatment value) in rats expressed as urinary output. at a dose of 32 mg/kg; 7.67/10. The class given is functional, Urine.
For test [33], the system named is Rattus norvegicus. In words: Compound was tested for oral salidiuretic activity (control/drug treatment value) in rats expressed as urinary output. at a dose of 16 mg/kg; 7.67/8.78. The class given is functional, Urine.
For test [34], the system named is Rattus norvegicus. Description: Compound was tested for oral salidiuretic activity (control/drug treatment value) in rats expressed as urinary output. at a dose of 128 mg/kg; 7.67/14.18. The class given is functional, Urine.
Test [35] has as its system Rattus norvegicus. In words: Compound was tested for oral salidiuretic activity (control/drug treatment value) in rats expressed in Na+, mequiv/6 hr at a dose of 16 mg/kg; 0.181/0.242. The class given is functional, Urine.
The test system of test [36] is Rattus norvegicus. In words: Compound was tested for oral salidiuretic activity (control/drug treatment value) in rats expressed in Na+, mequiv/6 hr at a dose of 64 mg/kg; 0.181/0.512. It counts as functional, Urine.
Test [37] has as its system Rattus norvegicus. In words: Compound was tested for oral salidiuretic activity (control/drug treatment value) in rats expressed as urinary output. at a dose of 64 mg/kg; 7.67/12.42. The class given is functional, Urine.
Test [38] relates to Rattus norvegicus. In words: Compound was tested for oral salidiuretic activity (control/drug treatment value) in rats expressed in Na+, mequiv/6 hr at a dose of 128 mg/kg; 0.181/0.607. The class given is functional, Urine.
The test system of test [39] is Rattus norvegicus. Description: Compound was tested for oral salidiuretic activity (control/drug treatment value) in rats expressed as urinary output. at a dose of 64 mg/kg; 10.33/12.42.
The test system of test [40] is Rattus norvegicus. Description: Compound was tested for oral salidiuretic activity (control/drug treatment value) in rats expressed in Na+, mequiv/6 hr at a dose of 64 mg/kg; 0.140/0.606.

Chain of Beta-1 adrenergic receptor (Homo sapiens) (P08588 whole entry, looked up): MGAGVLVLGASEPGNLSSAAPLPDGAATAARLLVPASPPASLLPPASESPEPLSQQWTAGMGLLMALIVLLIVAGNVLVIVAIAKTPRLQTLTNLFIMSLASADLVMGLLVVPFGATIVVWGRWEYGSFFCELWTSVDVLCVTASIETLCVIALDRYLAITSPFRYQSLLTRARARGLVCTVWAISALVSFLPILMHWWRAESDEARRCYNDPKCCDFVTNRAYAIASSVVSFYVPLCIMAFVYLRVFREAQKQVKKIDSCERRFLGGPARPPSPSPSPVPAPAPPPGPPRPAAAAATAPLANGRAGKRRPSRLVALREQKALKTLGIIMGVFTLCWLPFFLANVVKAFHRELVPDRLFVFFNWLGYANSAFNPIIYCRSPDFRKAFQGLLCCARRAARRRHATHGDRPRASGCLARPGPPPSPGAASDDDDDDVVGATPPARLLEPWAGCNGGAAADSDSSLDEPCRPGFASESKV

With `NS(=O)(=O)c1cc2c(cc1Cl)NCNS2(=O)=O` [HYDROCHLOROTHIAZIDE], the Activity in [1] was 0.261; in [3], 0.261; in test [4], 0.261; in test [6] it was 0.261; in test [7], 7.17 mL; in test [8] it was 7.17 mL. In addition, the treated urinary output came out at 9.58 mL in [2] and 11.2 mL in test [5].

With `CC(=O)c1cc(NC(=O)c2cccs2)ccc1OCC(O)CNC(C)C` (stereo unspecified), the Activity in test [9] amounted to 7.87 mL; in test [10], 0.177. Also, the figures for the ID50 in test [11] and in test [12] were above 1 mg/kg and 0.45 mg/kg, respectively.

`CC(C)(C)NCC(O)COc1ccc(NC(=O)c2cccs2)cc1C(=O)O` (stereo unspecified): the treated urinary output in test [13] is 5.32 mL. The ID50 in test [11] and in [12] was above 8 mg/kg in each case. Moreover, in [14], the Activity worked out at 0.229.

In the case of `CC(C)NCC(O)COc1ccc(NC(=O)c2cccs2)cc1C(=O)OC(C)C` (stereo unspecified), the figures for the Activity in test [15] and in [16] were 0.112 and 7.25 mL, respectively. Further, the ID50 in [11] is 0.25 mg/kg; in test [12], 0.17 mg/kg.

For the compound `CC(C)NCC(O)COc1cccc2ccccc12` (stereo unspecified) [PROPRANOLOL], the Activity stood at 9.05 mL in test [17]; 0.216 in test [18]; 0.216 in test [19]; 0.216 in test [20]; 9.05 mL in test [21]; 0.216 in test [22].

With `CCCOC(=O)c1cc(NC(=O)c2cccs2)ccc1OCC(O)CNC(C)(C)C` (stereo unspecified), the Activity in test [23] was 0.202; in test [24] it was 7.17 mL. Moreover, the ID50 was above 1 mg/kg in test [11] and 0.27 mg/kg in [12].

Regarding `COC(=O)c1cc(NC(=O)c2cccs2)ccc1OCC(O)CNC(C)(C)C` (stereo unspecified), the Activity in test [25] stood at 6.83 mL; in [26], 0.306. The ID50 was above 1 mg/kg in test [11] and 0.042 mg/kg in test [12].

On to `Cc1cc(NC(=O)c2cccs2)ccc1OCC(O)CNC(C)(C)C` (stereo unspecified), for which the Activity in test [27] came to 10.33 mL; in test [28] it was 0.14. For the same compound, the ID50 in test [11] was above 1 mg/kg; in [12], 0.03 mg/kg.

As to `CC(C)NCC(O)COc1ccc(NC(=O)c2cccs2)cc1` (stereo unspecified), the Activity in [29] came out at 0.114. Besides, the ID50 in [11] is above 1 mg/kg; in test [12] it was 0.045 mg/kg. The compound further yielded a treated urinary output in test [30] of 12.8 mL.

Consider `CC(C)(C)NCC(O)COc1ccc(NC(=O)c2cccs2)cc1` (stereo unspecified), for which the Activity in test [31] turned out to be 0.181; in test [33], 7.67 mL; in [34] it was 7.67 mL; in test [35], 0.181; in test [36], 0.181; in test [37] it was 7.67 mL. Moreover, the Activity in [38] amounted to 0.181. Besides, the treated urinary output in [32] amounted to 10 mL. Moreover, the ID50 in test [11] was above 1 mg/kg; in test [12], 0.075 mg/kg.

On to `Cc1cc(NC(=O)c2cccs2)ccc1OCC(O)CNC(C)C` (stereo unspecified), for which the Activity in test [39] is 10.33 mL; in test [40] it was 0.14. For the same compound, the ID50 in test [11] is above 1 mg/kg; in [12], 0.02 mg/kg.
